Results reported in patent US10898548B2, “Modulators of protein tyrosine phosphatase and uses thereof” (LEUVAS THERAPEUTICS, priority 2015, dated 2021).

What was measured:
JAK2 (pYpY1007/1008) = assay: p-JAK2 ELISA on monocytes; format: cell-based, human; conditions: 1 hour, 50 nM fMLP 90 sec, CTRL 100
Source text: JAK2 regulation by PTPRG as assessed through the high-throughput phospho-proteomics analysis evidenced that PTPRG activation (Example 4, Table 9 and 10) provides a useful example of the exploitation of this analysis system for identification of targets and unexpected indications/uses for known and novel agents that regulate the phoshoproteome. […] Furthermore, the capability of fMLP to trigger JAKs activation has never been observed. The results described in Example 4 unexpectedly implicate JAK2 de-phosphorylation by PTPRG as playing a role in the anti-adhesive role of PTPRG on monocytes. To test this system-generated hypothesis we first set out to define the role of JAK2 in fMLP-triggered rapid adhesion in monocytes. Time course experiments, either performed with ELISA assay or Western Blot. Briefly, purified human monocytes were treated with buffer (resting) or with 50 nM fMLP for the indicated times (Table 12), and the phosphorylation was assessed by p-Jak2 elisa and Western Blot analysis. The JAK2 activation was determined with Elisa Kit JAK2 (pYpY1007/1008) (Invitrogen). Briefly, cells were stimulated with agonist and lysed following manufacturer's protocol; levels of phospho-JAK2 were quantified (absorbance at 450 nm) with a micro-well plate reader (Victor™ X5 Multilabel Plate Reader, Perkin Elmer). For Western blot analysis, cells were lysed in ice-cold 1% Nonidet P-40 buffer, containing phosphatase inhibitors and complete protease inhibitor cocktail (Roche). Total cell lysates were quantified by Bradford assay (Bio-Rad). Equal amounts of total lysates or of isolated membranes (as described in Example 1) were subjected to 10% SDS-PAGE and then blotted. After incubation with anti-PTPRG, anti gp91^Phox, anti phospho-JAK2, anti JAK2 and HRP-linked secondary antibodies (GE Healthcare), immunoreactive bands were visualized by ECL detection (EMD Millipore). Intensities of band signals were quantified by densitometric analysis (Quantity One, Bio-Rad) by using ImageQuant Las4000. Data are mean value of three experiments; the relative ratio of the band intensity of phosphor-JAK2 was normalized to the level of JAK2 band intensities.
Briefly, p-JAK2 ELISA assay on human monocytes treated with buffer (CTRL=control), 50 μM P1-WD, P1 or P1-WD scrambled peptides (Table 17), or with buffer (CTRL=control), 0.5 uM TAT-ICD or 50 μM TAT peptide (Table 18) for 1 hour at 37° C. and stimulated with 50 nM fMLP for 90 sec. Shown are percentages of fold increases over the control; mean values of 3 experiments in triplicate.

U251 GBM cells = assay: VYBRANT DyeCycle Violet early apoptosis, U251 GBM cells; format: cell-based
Protocol: Cell viability and survival was measured using the MTT assay, a colorimetric assay for assessing cell metabolic activity set up under conditions where the absorption reflects the number of viable cells present (Table 21 and 22) and expressed as relative absorption at 570 nm. Early apoptosis was measured using VYBRANT DyeCycle Violet stain (Molecular Probes), a DNA-selective, cell membrane-permeant dye that can distinguish the compacted state of the nuclear chromatin in apoptotic cells as determined by flow cytometry and presented as the percent of cells that are apoptotic (Table 23 and 24). The actual number of cells following treatment with TAT-ICD or TAT alone (Table 25) was determined using flow cytometry compared to an input of 5,000 cells at time zero. To confirm apoptosis the TUNEL labeling assay, which detects DNA strand breaks in apoptotic cells by fluorescence microscopy, was also used to examine U251 cells treated with the PTPRG WD. Briefly, the assay used an optimized terminal transferase ([…]) to label 3′OH ends in genomic DNA with TMR-dUTP, thus allowing the measurement and quantification of cell death by apoptosis. U251 cells were pretreated for 1, 3 and 6 hours with 50 μM P1-WD. Then cells were fixed and permeabilized, incubated with TUNEL reaction mixture for 1 h at RT, and then stained with DAPI (for nuclei detection) and with Alexa670-Phalloidin (to detect actin in cell membranes). After the staining steps, cells were visualized with a confocal microscope.

T98G GBM cells = assay: MTT survival assay, T98G GBM cells; format: cell-based, human
Protocol: The DBTRG-O5MG (Denver Brain Tumor Research Group 05) cell line was established from tissue from a patient with glioblastoma multiforme who had been treated with local brain irradiation and multi drug chemotherapy (Kruse C A, et al. 1992 In vitro Cell Dev Biol, 28A(9-10):609-14). U87 is a commonly studied and thoroughly characterized grade IV glioma cell line derived from malignant glioma (Clark M J, et al, 2010 Plos Genet. 6(1):e1000832.). T98G is a glioblastoma multiforme cell line extracted from a person (Stein G H, 1979, J. Cell Physiol, 99(1):43-54). Proliferation and survival were assessed following TAT-ICD or control peptide (Table 29) or the P1-WD or control peptide treatment using the MTT assay as described above. Data are relative absorption; mean and standard deviation.

[1] = 50 μM P1-WD, P1 or P1-WD scrambled
[2] = P1 or P1-WD 50 μM, 6 h, Control 5
[3] = P1 or P1-WD 50 μM, 9 h, Control 12
[4] = P1 or P1-WD 50 μM, 24 h, Control 8
[5] = P1 or P1-WD 50 μM, 24 hours, Control 971
[6] = P1 or P1-WD 50 μM, 48 hours, Control 1305
[7] = P1 or P1-WD 50 μM, 72 hours, Control 1481
[8] = 0.5 uM TAT-ICD or 50 μM TAT peptide

Substance: P1-WD: fusion Trojan peptide SEQ ID 3: Penetratin, glycine, PTPRG wedge domain aa 831-856; RQIKIWFQNRRMKWKKGKQFVKHIGELYSNNQHGFSEDFEEVQ (listed as Homo sapiens)
- p-JAK2 ELISA, percentages of fold increases over the control (JAK2 (pYpY1007/1008); [1]): 51%
- percent of apoptotic cells (early apoptosis) (U251 GBM cells; P1-WD 10 μM, 6 h, Control 5): 13%
- percent of apoptotic cells (early apoptosis) (U251 GBM cells; P1-WD 10 μM, 9 h, Control 12): 21%
- percent of apoptotic cells (early apoptosis) (U251 GBM cells; P1-WD 10 μM, 24 h, Control 8): 25%
- percent of apoptotic cells (early apoptosis) (U251 GBM cells; P1-WD 25 μM, 6 h, Control 5): 21%
- percent of apoptotic cells (early apoptosis) (U251 GBM cells; P1-WD 25 μM, 9 h, Control 12): 30%
- percent of apoptotic cells (early apoptosis) (U251 GBM cells; P1-WD 25 μM, 24 h, Control 8): 30%
- percent of apoptotic cells (early apoptosis) (U251 GBM cells; [2]): 33%
- percent of apoptotic cells (early apoptosis) (U251 GBM cells; [3]): 40%
- percent of apoptotic cells (early apoptosis) (U251 GBM cells; [4]): 40%
- absorbance in the MTT assay (T98G GBM cells; P1-WD 10 μM, 24 hours, Control 971): 629
- absorbance in the MTT assay (T98G GBM cells; P1-WD 10 μM, 48 hours, Control 1305): 854
- absorbance in the MTT assay (T98G GBM cells; P1-WD 10 μM, 72 hours, Control 1481): 985
- absorbance in the MTT assay (T98G GBM cells; P1-WD 25 μM, 24 hours, Control 971): 555
- absorbance in the MTT assay (T98G GBM cells; P1-WD 25 μM, 48 hours, Control 1305): 697
- absorbance in the MTT assay (T98G GBM cells; P1-WD 25 μM, 72 hours, Control 1481): 835
- absorbance in the MTT assay (T98G GBM cells; [5]): 540
- absorbance in the MTT assay (T98G GBM cells; [6]): 744
- absorbance in the MTT assay (T98G GBM cells; [7]): 842

Substance: P1: Penetratin delivery peptide, 16 aa RQIKIWFQNRRMKWKK (SEQ ID 4), control [reference compound]
- p-JAK2 ELISA, percentages of fold increases over the control (JAK2 (pYpY1007/1008); [1]): 95%
- percent of apoptotic cells (early apoptosis) (U251 GBM cells; [2]): 8%
- percent of apoptotic cells (early apoptosis) (U251 GBM cells; [3]): 15%
- percent of apoptotic cells (early apoptosis) (U251 GBM cells; [4]): 15%
- absorbance in the MTT assay (T98G GBM cells; [5]): 1113
- absorbance in the MTT assay (T98G GBM cells; [6]): 1019
- absorbance in the MTT assay (T98G GBM cells; [7]): 1111

Substance: TAT-ICD: fusion recombinant protein SEQ ID 5: PTPRG intracellular domain aa 797-1445 fused to 13 aa TAT sequence
- p-JAK2 ELISA, percentages of fold increases over the control (JAK2 (pYpY1007/1008); [8]): 53%
- percent of apoptotic cells (early apoptosis) (U251 GBM cells; TAT-ICD 0.5 uM, 6 hr, CTRL 4.6): 2.6%
- percent of apoptotic cells (early apoptosis) (U251 GBM cells; TAT-ICD 0.5 uM, 9 hr, CTRL 6.0): 14.0%
- percent of apoptotic cells (early apoptosis) (U251 GBM cells; TAT-ICD 0.5 uM, 24 hr, CTRL 7.0): 21.0%
- percent of apoptotic cells (early apoptosis) (U251 GBM cells; TAT-ICD 1 uM, 6 hr, CTRL 4.6): 6.0%
- percent of apoptotic cells (early apoptosis) (U251 GBM cells; TAT-ICD 1 uM, 9 hr, CTRL 6.0): 17.0%
- percent of apoptotic cells (early apoptosis) (U251 GBM cells; TAT-ICD 1 uM, 24 hr, CTRL 7.0): 25.0%
- percent of apoptotic cells (early apoptosis) (U251 GBM cells; TAT-ICD 2 uM, 6 hr, CTRL 4.6): 15.0%
- percent of apoptotic cells (early apoptosis) (U251 GBM cells; TAT-ICD 2 uM, 9 hr, CTRL 6.0): 25.0%
- percent of apoptotic cells (early apoptosis) (U251 GBM cells; TAT-ICD 2 uM, 24 hr, CTRL 7.0): 30.0%
- absorbance in the MTT assay (T98G GBM cells; TAT-ICD 0.5 μM, 24 hours, CTRL 971): 921
- absorbance in the MTT assay (T98G GBM cells; TAT-ICD 0.5 μM, 48 hours, CTRL 1305): 1301
- absorbance in the MTT assay (T98G GBM cells; TAT-ICD 0.5 μM, 72 hours, CTRL 1481): 1061
- absorbance in the MTT assay (T98G GBM cells; TAT-ICD 1 μM, 24 hours, CTRL 971): 745
- absorbance in the MTT assay (T98G GBM cells; TAT-ICD 1 μM, 48 hours, CTRL 1305): 947
- absorbance in the MTT assay (T98G GBM cells; TAT-ICD 1 μM, 72 hours, CTRL 1481): 935
- absorbance in the MTT assay (T98G GBM cells; TAT-ICD 2 μM, 24 hours, CTRL 971): 552
- absorbance in the MTT assay (T98G GBM cells; TAT-ICD 2 μM, 48 hours, CTRL 1305): 687
- absorbance in the MTT assay (T98G GBM cells; TAT-ICD 2 μM, 72 hours, CTRL 1481): 625

Substance: TAT (GRKKRRQRRRPPQ; listed as Homo sapiens) [reference compound]
- p-JAK2 ELISA, percentages of fold increases over the control (JAK2 (pYpY1007/1008); [8]): 99%
- percent of apoptotic cells (early apoptosis) (U251 GBM cells; TAT 50 uM, 6 hr, CTRL 4.6): 10.0%
- percent of apoptotic cells (early apoptosis) (U251 GBM cells; TAT 50 uM, 9 hr, CTRL 6.0): 11.0%
- percent of apoptotic cells (early apoptosis) (U251 GBM cells; TAT 50 uM, 24 hr, CTRL 7.0): 8.0%
- absorbance in the MTT assay (T98G GBM cells; TAT 500[…]μM, 24 hours, CTRL 971): 954
- absorbance in the MTT assay (T98G GBM cells; TAT 500[…]μM, 48 hours, CTRL 1305): 1237
- absorbance in the MTT assay (T98G GBM cells; TAT 500[…]μM, 72 hours, CTRL 1481): 1205
